Test results published in US10858364B2, “Imidazopyrazine inhibitors of Bruton's tyrosine kinase” (Acerta Pharma B.V., priority 2016, dated 2020).

Tests used:
BMX = BMX (Homo sapiens (Human), UniProt P51813); test: BMX Z'-LYTE kinase assay; type: biochemical; details: 1 h pre-incubation, Km ATP
Method: BMX, TXK, EGFR, ERBB2, ERBB4, JAK3, BLK kinase activity was measured using the Z′-LYTE assay at Thermo Fisher. A 10-point dose response (final concentration in assay ranged from 10 μM to 0.5 nM in 3-fold dilution per dilution step) was generated with 1 h incubation of the test compound with the kinase prior to initiation of the kinase reaction by the addition of ATP. ATP concentration in the assay was Km ATP for the different kinases. IC50 values are determined by curve fitting of the experimental results at Thermo Fisher.

BTK = BTK (Homo sapiens (Human), UniProt Q06187); test: BTK IMAP with ATP competition and variable pre-incubation; type: biochemical
Method: BTK enzyme activity with ATP competition was measured using the IMAP (immobilized metal ion affinity-based fluorescence polarization) assay. BTK enzyme (Millipore) was diluted to 16 nM, respectively in Kinase Reaction (KR) buffer (10 mM Tris-HCl, 10 mM MgCl2, 0.01% Tween-20, 0.1% NaN3, 1 mM DTT, 2 mM MnCl2, pH 7.5). Serial dilutions […] from 1 mM to 31.6 nM of test compounds were made in 100% DMSO. The dilutions in DMSO were then diluted 25-fold in KR-buffer. Final compound concentrations ranged from 10 μM to 0.316 nM. The assay is performed as follows: 5 μL/well of test compound in KR buffer (final DMSO concentration in the assay is 1%) was mixed with 5 µl/well of BTK or ITK enzyme (final concentration in the assay was 4 and 8 nM for BTK and ITK, respectively). Test compounds and kinase enzyme were pre-incubated 0, 30, or 60 min, before adding 5 μL/well of 200 nM Fluorescein labeled substrate peptide (Blk/Lyntide substrate, Molecular Devices) in KR-buffer. Final peptide substrate concentration in assay was 50 nM. The kinase assay was started by adding 5 μL/well of 20, 100, or 400 μM ATP in KR-buffer (final ATP concentration was 5, 25, or 100 μM ATP). Following incubation for 2h at room temperature the enzyme reaction was stopped by adding 40 μL/well IMAP Progressive Binding Solution (Molecular Devices), according to product instructions, using 60% lx buffer A and 40% lx buffer B with 800× diluted beads). After 60 min incubation at room temperature in the dark the FP signal was read. Fluorescence at 535 nm was measured using parallel and perpendicular filters to determine differences in rotation due to binding of the phosphorylated substrate peptide to the beads. Values were calculated as percentage of the difference in readout (AmPi) of the controls with and without ATP. IC50 values were determined by curve fitting of the experimental results using Dotmatics. […] M27 was tested in the BTK IMAP ATP competition assays with variable pre-incubation times (0, 30, and 60 minutes) and ATP concentrations (5, 25 and 100 μM). The results in Table 2 and FIG. 2 confirm that M27 is covalent inhibitors of BTK. […] Furthermore, there is loss of ATP competition following pre-incubation of BTK with M27, a result that is typical for compounds that bind covalently.

BRK (PTK6) = BRK (PTK6) (Homo sapiens (Human), UniProt Q13882); test: DiscoveRx Kd dose response, BRK (PTK6); type: binding
Method: Kinase profiling was performed with M27 was done at DiscoveRx at a single dose of 1 μM on all available kinases (KINOMEscan). The overall kinase selectivity score is in Table 6. […] Kinases inhibited >65% at 1 μM for M27 were followed up with a dose response at DiscoveRx. The M27 had IC50 values <1 μM for almost the same set of kinases with exception of TXK, but with additional inhibition of BRK (PTK6).

Chain of BTK (Q06187 whole entry): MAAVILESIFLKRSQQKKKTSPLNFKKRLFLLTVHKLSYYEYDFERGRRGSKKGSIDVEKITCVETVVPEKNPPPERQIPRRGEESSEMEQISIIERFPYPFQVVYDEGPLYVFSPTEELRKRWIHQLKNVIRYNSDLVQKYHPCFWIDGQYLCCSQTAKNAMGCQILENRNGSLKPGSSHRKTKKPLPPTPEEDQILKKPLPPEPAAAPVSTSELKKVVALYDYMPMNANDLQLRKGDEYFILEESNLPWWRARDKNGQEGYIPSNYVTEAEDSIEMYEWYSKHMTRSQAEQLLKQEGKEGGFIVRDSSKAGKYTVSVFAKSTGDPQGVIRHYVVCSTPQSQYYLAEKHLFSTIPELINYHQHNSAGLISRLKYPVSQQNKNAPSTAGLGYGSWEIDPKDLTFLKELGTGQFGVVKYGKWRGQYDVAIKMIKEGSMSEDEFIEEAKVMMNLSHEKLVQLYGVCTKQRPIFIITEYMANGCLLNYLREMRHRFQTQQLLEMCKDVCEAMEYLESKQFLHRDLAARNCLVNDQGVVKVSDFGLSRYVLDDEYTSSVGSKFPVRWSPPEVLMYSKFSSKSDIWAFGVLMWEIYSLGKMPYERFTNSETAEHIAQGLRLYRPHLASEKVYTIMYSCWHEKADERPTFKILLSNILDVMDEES
Chain of BRK (PTK6) (Q13882 whole entry): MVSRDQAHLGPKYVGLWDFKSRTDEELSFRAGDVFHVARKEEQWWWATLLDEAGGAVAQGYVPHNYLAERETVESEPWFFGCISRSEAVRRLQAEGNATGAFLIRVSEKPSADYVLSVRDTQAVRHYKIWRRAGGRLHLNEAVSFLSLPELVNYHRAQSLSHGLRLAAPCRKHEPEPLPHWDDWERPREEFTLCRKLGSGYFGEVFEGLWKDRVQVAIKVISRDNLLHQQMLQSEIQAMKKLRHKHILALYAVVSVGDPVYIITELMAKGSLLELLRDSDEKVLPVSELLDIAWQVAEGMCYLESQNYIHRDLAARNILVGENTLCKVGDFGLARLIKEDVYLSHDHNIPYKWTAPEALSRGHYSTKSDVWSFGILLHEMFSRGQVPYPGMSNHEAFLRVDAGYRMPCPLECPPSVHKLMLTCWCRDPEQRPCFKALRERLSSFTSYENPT
Chain of BMX (P51813 whole entry): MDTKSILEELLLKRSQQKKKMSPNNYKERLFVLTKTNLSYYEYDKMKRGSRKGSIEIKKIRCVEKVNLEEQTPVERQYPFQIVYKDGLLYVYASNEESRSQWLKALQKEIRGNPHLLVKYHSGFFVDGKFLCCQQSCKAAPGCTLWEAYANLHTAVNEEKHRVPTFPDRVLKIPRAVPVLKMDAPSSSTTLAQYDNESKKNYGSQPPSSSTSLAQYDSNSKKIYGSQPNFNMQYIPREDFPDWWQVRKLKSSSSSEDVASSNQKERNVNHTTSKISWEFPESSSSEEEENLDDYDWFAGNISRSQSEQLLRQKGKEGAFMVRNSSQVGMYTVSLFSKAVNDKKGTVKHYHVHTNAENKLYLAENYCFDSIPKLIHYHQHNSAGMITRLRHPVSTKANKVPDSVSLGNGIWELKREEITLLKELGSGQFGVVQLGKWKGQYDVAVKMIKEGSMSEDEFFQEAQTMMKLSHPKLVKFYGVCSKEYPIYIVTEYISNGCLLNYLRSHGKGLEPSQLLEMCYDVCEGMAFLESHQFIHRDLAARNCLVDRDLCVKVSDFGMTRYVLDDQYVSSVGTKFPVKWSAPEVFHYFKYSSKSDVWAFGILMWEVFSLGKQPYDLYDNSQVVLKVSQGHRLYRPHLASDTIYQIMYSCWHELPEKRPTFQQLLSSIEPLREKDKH

IC50 (BMX): 15 ± 2 nM
IC50 (BTK; 5 μM ATP, 0 minute pre-incubation): 27.3 nM
IC50 (BTK; 5 μM ATP, 30 minutes pre-incubation): 12.6 nM
IC50 (BTK; 5 μM ATP, 60 minutes pre-incubation): 6.9 nM
IC50 (BTK; 25 μM ATP, 0 minute pre-incubation): 72.4 nM
IC50 (BTK; 25 μM ATP, 30 minutes pre-incubation): 18.1 nM
IC50 (BTK; 25 μM ATP, 60 minutes pre-incubation): 9.5 nM
IC50 (BTK; 100 μM ATP, 0 minute pre-incubation): 101 nM
IC50 (BTK; 100 μM ATP, 30 minutes pre-incubation): 23.7 nM
IC50 (BTK; 100 μM ATP, 60 minutes pre-incubation): 10.8 nM
Kd (BRK (PTK6)): 150 nM
SMILES: CC#CC(=O)NCCCC(=O)c1nc(-c2ccc(C(=O)Nc3ccccn3)cc2)c2c(N)nccn12 [Formula (I), 4-(8-amino-3-(4-(but-2-ynamido)butanoyl)imidazo[1,5-a]pyrazin-1-yl)-N-(pyridin-2-yl)benzamide]
